These compounds were tested on RSV Long strain (assay: Viral cytopathic effect (CPE) assay, anti-RSV activity). Details: RSV Long strain (ATCC); cell viability after 6 days, Cell Counting kit-8.
Type: cell-based, Respiratory Syncytial Virus
In short: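 Cells (6×10^3/well, DMEM with 10% FBS) were infected next day with RSV Long strain, at a dose giving approximately 80–90% CPE, alongside serial half-log compound dilutions. Viability was read after 6 days by CCK-8 absorbance at 450 nm (reference 630 nm), and EC50 was derived from it.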

EC50 [µM] | SMILES
0.003 | Cc1ccc2nc(N3CC[S+]([O-])c4ccccc4C3)cc(NCC3(N)COC3)c2c1 (stereo not shown) [Example 18-1, N-[(3-Aminooxetan-3-yl)methyl]-6-methyl-2-(1-oxido-2,3-dihydro-1,4-benzothiazepin-4(5H)-yl)quinolin-4-amine]

Same assay, conditions: human respiratory syncytial virus, 144 h, RSV Long strain (ATCC); cell viability after 6 days, Cell Counting kit-8

SMILES | EC50 [µM]
Cc1ccc2nc(N3CCS(=O)(=O)c4ccccc4C3)cc(N3CC[C@H](O)C3)c2c1 [Example 15-3, (3S)-1-[2-(1,1-Dioxido-2,3-dihydro-1,4-benzothiazepin-4(5H)-yl)-6-methylquinolin-4-yl]pyrrolidin-3-ol] | 2.7
Cc1ccc2nc(N3CCS(=O)(=O)c4ccccc4C3)cc(N3CC[C@@H](O)C3)c2c1 [Example 15-4, (3R)-1-[2-(1,1-Dioxido-2,3-dihydro-1,4-benzothiazepin-4(5H)-yl)-6-methylquinolin-4-yl]pyrrolidin-3-ol] | 0.257
Cc1ccc2nc(N3CCS(=O)(=O)c4ccccc4C3)cc(N3CCCC(N)C3)c2c1 (stereo not shown) [Example 16-1, 1-[2-(1,1-Dioxido-2,3-dihydro-1,4-benzothiazepin-4(5H)-yl)-6-methylquinolin-4-yl]piperidin-3-amine] | 2.57
Cc1ccc2nc(N3CCS(=O)(=O)c4ccccc4C3)cc(N(C)C)c2c1 [Example 16-2, 2-(1,1-Dioxido-2,3-dihydro-1,4-benzothiazepin-4(5H)-yl)-N,N,6-trimethylquinolin-4-amine] | 9.64
NCCCNc1cc(N2CCS(=O)(=O)c3ccccc3C2)nc2ccc(OC(F)(F)F)cc12 [Example 17-1, N-[2-(1,1-Dioxido-2,3-dihydro-1,4-benzothiazepin-4(5H)-yl)-6-(trifluoromethoxy)quinolin-4-yl]propane-1,3-diamine] | 5.54
NCCCNc1cc(N2CCS(=O)(=O)c3ccccc3C2)nc2ccc(C(F)(F)F)cc12 [Example 17-2, N-[2-(1,1-Dioxido-2,3-dihydro-1,4-benzothiazepin-4(5H)-yl)-6-(trifluoromethyl)quinolin-4-yl]propane-1,3-diamine] | 0.616
NCCCNc1cc(N2CCS(=O)(=O)c3ccccc3C2)nc2ccc(OC(F)F)cc12 [Example 17-3, N-[6-(Difluoromethoxy)-2-(1,1-dioxido-2,3-dihydro-1,4-benzothiazepin-4(5H)-yl)quinolin-4-yl]propane-1,3-diamine] | 2.17
COc1ccc2nc(N3CCS(=O)(=O)c4ccccc4C3)cc(NCCCN)c2c1 [Example 17-4, N-[2-(1,1-Dioxido-2,3-dihydro-1,4-benzothiazepin-4(5H)-yl)-6-methoxyquinolin-4-yl]propane-1,3-diamine] | 0.071
Cc1cccc2c(NCCCN)cc(N3CCS(=O)(=O)c4ccccc4C3)nc12 [Example 17-5, N-[2-(1,1-Dioxido-2,3-dihydro-1,4-benzothiazepin-4(5H)-yl)-8-methylquinolin-4-yl]propane-1,3-diamine] | 1.5
Cc1cccc2nc(N3CCS(=O)(=O)c4ccccc4C3)cc(NCCCN)c12 [Example 17-6, N-[2-(1,1-Dioxido-2,3-dihydro-1,4-benzothiazepin-4(5 H)-yl)-5-methylquinolin-4-yl]propane-1,3-diamine] | 0.086
Cc1ccc2c(NCCCN)cc(N3CCS(=O)(=O)c4ccccc4C3)nc2c1 [Example 17-7, N-[2-(1,1-Dioxido-2,3-dihydro-1,4-benzothiazepin-4(5H)-yl)-7-methylquinolin-4-yl]propane-1,3-diamine] | 0.642
NCC1(CNc2cc(N3CCS(=O)(=O)c4ccccc4C3)nc3ccc(F)cc23)COC1 [Example 17-8, N-{[3-(Aminomethyl)oxetan-3-yl]methyl}-2-(1,1-dioxido-2,3-dihydro-1,4-benzothiazepin-4(5H)-yl)-6-fluoroquinolin-4-amine] | 0.021
NC1(CNc2cc(N3CC[S+]([O-])c4ccccc4C3)nc3ccc(Cl)cc23)COC1 (stereo not shown) [Example 18-4, N-[(3-Aminooxetan-3-yl)methyl]-6-chloro-2-(1-oxido-2,3-dihydro-1,4-benzothiazepin-4 (5H)-yl)quinolin-4-amine] | 0.061
Cc1ccc2nc(N3CC[S+]([O-])c4ccccc4C3)cc(NCC(F)(F)CN)c2c1 (stereo not shown) [Example 18-5, N-[2-(1-Oxido-2,3-dihydro-1,4-benzothiazepin-4(5H)-yl)-6-methylquinolin-4-yl]-2,2-difluoropropane-1,3-diamine] | 0.057
NCC(F)(F)CNc1cc(N2CC[S+]([O-])c3ccccc3C2)nc2ccc(Cl)cc12 (stereo not shown) [Example 18-6, N-[6-Chloro-2-(1-oxido-2,3-dihydro-1,4-benzothiazepin-4(5H)-yl)quinolin-4-yl]-2,2-difluoropropane-1,3-diamine] | 0.061

The next lines start with the values.

EC50 [µM] | SMILES
0.023 | NCCNc1cc(N2CC[S+]([O-])c3ccccc3C2)nc2ccc(Cl)cc12 (stereo not shown) [Example 18-7, N-[6-Chloro-2-(1-oxido-2,3-dihydro-1,4-benzothiazepin-4(5H)-yl)quinolin-4-yl]ethane-1,2-diamine]
0.0007 | Cc1ccc2nc(N3CC[S+]([O-])c4ccccc4C3)cc(NCC3(CN)COC3)c2c1 (stereo not shown) [Example 18-8, N-{[3-(Aminomethyl)oxetan-3-yl]methyl}-6-methyl-2-(1-oxido-2,3-dihydro-1,4-benzothiazepin-4(5H)-yl)quinolin-4-amine]
0.005 | NCC1(CNc2cc(N3CC[S+]([O-])c4ccccc4C3)nc3ccc(Cl)cc23)COC1 (stereo not shown) [Example 18-9, N-{[3-(Aminomethyl)oxetan-3-yl]methyl}-6-chloro-2-(1-oxido-2,3-dihydro-1,4-benzothiazepin-4(5H)-yl)quinolin-4-amine]
0.011 | Cc1ccc2nc(N3CC[S+]([O-])c4ccccc4C3)cc(NCCN)c2c1 (stereo not shown) [Example 18-10, N-[6-Methyl-2-(1-oxido-2,3-dihydro-1,4-benzothiazepin-4(5H)-yl)quinolin-4-yl]ethane-1,2-diamine]
0.619 | Cc1ccc2nc(N3CC[S+]([O-])c4ccccc4C3)cc(NCCO)c2c1 (stereo not shown) [Example 18-11, 2-{[6-Methyl-2-(1-oxido-2,3-dihydro-1,4-benzothiazepin-4(5H)-yl)quinolin-4-yl]amino}ethanol]
0.011 | Cc1ccc2nc(N3CCS(=O)(=O)c4ccccc4C3)cc(N3C[C@@H]4[C@@H](N)[C@@H]4C3)c2c1 [Example 19-2, (1R,5S,6S)-3-[2-(1,1-Dioxido-2,3-dihydro-1,4-benzothiazepin-4(5H)-yl)-6-methylquinolin-4-yl]-3-azabicyclo[3.1.0]hexan-6-amine]
0.02 | Cc1ccc2nc(N3CC[S+]([O-])c4ccccc4C3)cc(N3CCC(N)C3)c2c1 (stereo not shown) [Example 19-4, 1-[6-Methyl-2-(1-oxido-2,3-dihydro-1,4-benzothiazepin-4(5H)-yl)quinolin-4-yl]pyrrolidin-3-amine]
2.75 | Cc1ccc2nc(N3CCS(=O)(=O)c4ccccc4C3)cc(N3CC4CC3C4N)c2c1 (stereo not shown) [Example 19-8, 2-[2-(1,1-Dioxido-2,3-dihydro-1,4-benzothiazepin-4(5H)-yl)-6-methylquinolin-4-yl]-2-azabicyclo[2.1.1]hexan-5-amine]
0.073 | COc1ccc2c(c1)S(=O)(=O)CCN(c1cc(N)c3cc(C)ccc3n1)C2 [Example 20-1, 2-(8-Methoxy-1,1-dioxido-2,3-dihydro-1,4-benzothiazepin-4(5H)-yl)-6-methylquinolin-4-amine]
0.31 | COc1ccc2c(c1)CN(c1cc(N)c3cc(C)ccc3n1)CCS2(=O)=O [Example 20-2, 2-(7-Methoxy-1,1-dioxido-2,3-dihydro-1,4-benzothiazepin-4(5H)-yl)-6-methylquinolin-4-amine]
0.093 | Cc1ccc2nc(N3CCS(=O)(=O)c4ccccc4C3)cc(NCCC3(N)CC3)c2c1 [Example 20-3, [2-(1-Amino-cyclopropyl)-ethyl]-[2-(1,1-dioxido-2,3-dihydro-1,4-benzothiazepin-4(5H)-yl)-6-methylquinolin-4-yl]-amine]
0.023 | Cc1ccc2nc(N3CCS(=O)(=O)c4ccccc4C3)cc(NCC3CNCCO3)c2c1 (stereo not shown) [Example 21-1, 2-(1,1-Dioxido-2,3-dihydro-1,4-benzothiazepin-4(5H)-yl)-6-methyl-N-(morpholin-2-ylmethyl)quinolin-4-amine]
0.161 | Cc1ccc2nc(N3CCS(=O)(=O)c4ccccc4C3)cc(N(C)CCN)c2c1 [Example 21-2, N-[2-(1,1-Dioxido-2,3-dihydro-1,4-benzothiazepin-4(5H)-yl)-6-methylquinolin-4-yl]-N-methylethane-1,2-diamine]
0.015 | Cc1ccc2nc(N3CCS(=O)(=O)c4ccccc4C3)cc(NCC3CCN3)c2c1 (stereo not shown) [Example 21-3, N-(Azetidin-2-ylmethyl)-2-(1,1-dioxido-2,3-dihydro-1,4-benzothiazepin-4(5H)-yl)-6-methylquinolin-4-amine]
0.004 | Cc1ccc2nc(N3CCS(=O)(=O)c4ccccc4C3)cc(NC3CCNC3)c2c1 (stereo not shown) [Example 21-4, 2-(1,1-Dioxido-2,3-dihydro-1,4-benzothiazepin-4(5H)-yl)-6-methyl-N-(pyrrolidin-3-yl)quinolin-4-amine]
0.007 | Cc1ccc2nc(N3CCS(=O)(=O)c4ccccc4C3)cc(NCC3(N)CC3)c2c1 [Example 21-5, (1-Amino-cyclopropylmethyl)-[2-(5,5-dioxo-5,6,7,9-tetrahydro-5λ^6-thia-8-aza-benzocyclohepten-8-yl)-6-methyl-quinolin-4-yl]-amine]
0.036 | O=S1(=O)CCN(c2cc(NC3CNC3)c3cc(Cl)ccc3n2)Cc2ccccc21 [Example 22, N-(Azetidin-3-yl)-6-chloro-2-(1,1-dioxido-2,3-dihydro-1,4-benzothiazepin-4(5H)-yl)quinolin-4-amine]
5.19 | Cc1ccc2nc(N3CCS(=O)(=O)c4ccccc4C3)cc(N3CC(N)C4(COC4)C3)c2c1 (stereo not shown) [Example 23, 6-[2-(1,1-Dioxido-2,3-dihydro-1,4-benzothiazepin-4(5 H)-yl)-6-methylquinolin-4-yl]-2-oxa-6-azaspiro[3.4]octan-8-amine]
